Experimental data published in publication PMC5454942, “The Potential of Triterpenoids from Loquat Leaves (Eriobotrya japonica) for Prevention and Treatment of Skin Disorder” (International Journal of Molecular Sciences, 2017).
Converted amounts (≈) assume the structure as drawn. “And” between values parts separate entries of the source, which are not always exact repeats. Identical values can stand only once. Like-named read-outs stand apart in the source and are kept apart here.

Legend:
RBL-2H3 cells [1] = experiment: Cell viability of RBL-2H3 cells (parallel MTT); format: cell-based, rat; settings: 25 μg/ml, RBL-2H3 cells
Description: (§1) The anti-allergy assay was based mostly on the methods described by Zhu et al. and Yun et al. with slight modification. Rat basophilic leukemia (RBL-2H3) cells were obtained from the Riken Bio-resource Center Cell Bank (Tsukuba, Japan). RBL-2H3 cells were incubated in EMEM medium containing 10% FBS and 1% antibiotics–antimycotics at 37 °C. The cells were seeded on a 96-well plate (2 × 10^5 cells/well). After 24 h of incubation, the medium was supplemented with 0.5 μg/mL anti-DNP (dinitrophenol) mouse immunoglobulin E (IgE) (Sigma-Aldrich). After an additional 24 h of incubation, the medium was replaced with 100 μL of Tyrode buffer. The sample dissolved in DMSO (<0.5% per well) was added, and the cell plate was incubated again for 30 min, then replaced with 100 μL of tyrode buffer containing 50 μg/mL DNP-bovine serum albumin (BSA) (Invitrogen, Carlsbad, CA, USA). After 1 h of incubation, 50 μL of the supernatant was collected from each well and mixed with 50 μL of substrate solution (p-nitrophenyl-N-acetyl-β-glucosaminide, 2 mM; Sigma-Aldrich) in a new 96-well plate. The mixture was incubated at room temperature on a shaker for 3 h. Finally, 100 μL of stop solution was added, and the absorbance was read at 405 nm. A parallel MTT experiment was performed to measure the cell viability. The MTT experiment was done exactly as described.

B16 melanoma cells [2] = experiment: Cell viability of B16 melanoma cells (MTT); settings: for Inhibition rate (100% − cell viability): B16 cells; for CC50 cell viability / CC50: B16 melanoma cells, MTT; for CC50: read-out: CC50 (cell viability)
Description: (§2) This assay was performed as described by Arung et al.. The mouse melanoma cell line B16 was obtained from the Riken Bioresource Center Cell Bank (Tsukuba, Japan). The B16 melanoma cells were maintained in Eagle’s Minimal Essential Medium (EMEM, Nissui Chemical, Tokyo) supplemented with 10% (v/v) fetal bovine serum (FBS; Gibco, Carlsbad, CA, USA) and 0.09 mg/mL theophylline (Sigma-Aldrich, St. Louis, MO, USA). […] After 24 h, test samples were dissolved in DMSO (<0.2% per well) and sample solution were added to each well. Arbutin (Tokyo Kasei Kogyo, Tokyo) was used as a positive control. The cells were incubated for an additional 48 h, and then the medium was replaced with fresh medium containing each sample again. After 24 h, the melanin content and the cell viability were measured using a microplate reader (BioTek-ELX800, BioTek Instruments, Winooski, VT, USA) at 405 nm and 570 nm, respectively. Cell viability was measured using the MTT (3-(4,5-dimethylthiazol-2-yl)-2,5-diphenyltetrazolium bromide) method.

B16 melanoma cells [3] = experiment: Anti-melanogenesis assay (melanin content); format: cell-based, mouse
Description: as §2

NHDF cells = experiment: Skin type I collagen synthesis promoting assay (ELISA, with MTT); format: cell-based, human; settings: 5 μg/mL, fold of control
Description: The assay for measuring the promotion of skin collagen synthesis was described by Kishikawa et al.. Adult NHDF cells (Lonza, Tokyo) were routinely maintained in 10% FBS and 1% antibiotic-antimycotic (Invitrogen) in Dulbecco’s modified Eagle’s medium (DMEM, Wako). After growing to confluence, cells at a density of 5 × 10^3 cells/well were seeded on 96-well plates for 24 h before the treatment. The medium was replaced with a mixture of 1 μL of sample solution (DMSO < 0.5% per well) and 99 μL of DMEM supplemented with 0.5% FBS. After 72 h of cultivation, the amount of collagen in the medium was measured using a human type I collagen enzyme-linked immunosorbent assay (ELISA) kit (ACEL, Kanagawa, Japan). The amount of collagen production was calculated using a standard curve prepared by measurement by the same ELISA. The cells remaining in the 96-well plate were subjected to an MTT assay. Ascorbic acid (100 μM, Wako) was used as a positive control.

Propionibacterium acnes = experiment: Anti-bacterial assay (growth inhibition, MIC/MBC by broth microdilution); format: cell-based; settings: for activity against P. acnes (in words): at their maximum solubility; for Inhibition Rate (P. acnes growth): concentration 100 μg/mL
Description: The antibacterial assay was based mostly on the methods described by Tanaka et al. with slight modification. Propionibacterium acne (NBRC 107605) was used for the antibacterial assay. A single colony of the test strain was taken and 5 mL of Gifu anaerobic medium (GAM) broth (Nissui, Tokyo) was added to it. This culture was incubated at 37 °C for 30 h. It was then added to the bacterial suspension to prepare a bacterial concentration at 10^5 CFU/mL. The bacterial solution was used for the subsequent antibacterial assay. Each compound was dissolved in DMSO, and benzalkonium chloride (Wako) was used as a positive control. The plate was incubated at 37 °C for 30 h. Finally, bacterial growth was measured by a microplate reader at 630 nm. The MIC and MBC were evaluated by the standard broth microdilution method.

in vitro = settings: mouse
Description: as §2

[4] = Cell viability of RBL-2H3 cells (parallel MTT); format: cell-based, rat; settings: rat
Description: as §1

RBL-2H3 cells [5] = experiment: β-hexosaminidase release from IgE-stimulated RBL-2H3 mast cells; format: cell-based, rat; settings: Rattus norvegicus, RBL-2H3
Description: as §1

[6] = B16 melanoma cells, read-out: IC50 (melanin synthesis)
[7] = Mus musculus, B16 melanoma cells, read-out: IC50 (melanin synthesis)
[8] = Mus musculus, B16 melanoma cells, read-out: IC50 melanin
[9] = Mus musculus, B16, read-out: Inhibition rate (100% − melanin synthesis)

IC50 melanin (B16 melanoma cells [3]; B16 melanoma cells) [µg/mL]	IC50 (B16 melanoma cells [3]; [6]) [µM]	MIC (Propionibacterium acnes; P. acnes, broth microdilution) [µg/mL]	Structure (SMILES)	Cell viability (RBL-2H3 cells [1]) [%]	Inhibition rate (100% − cell viability) (B16 melanoma cells [2]; 1 μg/ml) [%]	Inhibition rate (100% − cell viability) (B16 melanoma cells [2]; 2.5 μg/ml) [%]	Inhibition rate (100% − cell viability) (B16 melanoma cells [2]; 5 μg/ml) [%]	Inhibition rate (100% − cell viability) (B16 melanoma cells [2]; 10 μg/ml) [%]	Inhibition rate (100% − cell viability) (B16 melanoma cells [2]; 20 μg/ml) [%]	CC50 cell viability (B16 melanoma cells [2]) [µg/mL]	CC50 (B16 melanoma cells [2]) [µM]	Inhibition rate (100% − melanin synthesis) (B16 melanoma cells [3]; 1 μg/ml, B16 cells) [%]	Inhibition rate (100% − melanin synthesis) (B16 melanoma cells [3]; 2.5 μg/ml, B16 cells) [%]	Inhibition rate (100% − melanin synthesis) (B16 melanoma cells [3]; 5 μg/ml, B16 cells) [%]	Inhibition rate (100% − melanin synthesis) (B16 melanoma cells [3]; 10 μg/ml, B16 cells) [%]	Inhibition rate (100% − melanin synthesis) (B16 melanoma cells [3]; 20 μg/ml, B16 cells) [%]	CP/CV value (collagen production %/cell viability %) (NHDF cells)	MBC (Propionibacterium acnes; P. acnes, broth microdilution) [µg/mL]	activity against P. acnes (in words) (Propionibacterium acnes)	Inhibition Rate (P. acnes growth) (Propionibacterium acnes) [%]	further results
> 20.0	> 30.9	100 (≈ 158 µM)	C[C@@H]1CC[C@]2(C(=O)O)CC[C@]3(C)C(=CC[C@@H]4[C@@]5(C)C[C@@H](O)[C@H](OC(=O)/C=C/c6ccc(O)cc6)C(C)(C)[C@@H]5CC[C@]43C)[C@@H]2[C@]1(C)O (relative stereo) [Compound 17, 3-O-trans-p-coumaroyl tormentic acid]	99.8 ± 7.0	0.0 ± 8.4	5.1 ± 6.0	10.7 ± 10.0	41.1 ± 9.2	61.0 ± 1.6	15.6 (≈ 24.6 µM)	24	2.8 ± 0.9	6.2 ± 1.7	11.1 ± 0.6	29.4 ± 6.8	30.5 ± 6.0	1.2	200 (≈ 315 µM)	active	101.4 ± 2.1	–
> 20.0	> 30.9	100 (≈ 158 µM)	C[C@@H]1CC[C@]2(C(=O)O)CC[C@]3(C)C(=CC[C@@H]4[C@@]5(C)C[C@@H](O)[C@H](OC(=O)/C=C\c6ccc(O)cc6)C(C)(C)[C@@H]5CC[C@]43C)[C@@H]2[C@]1(C)O (relative stereo) [Compound 18, 3-O-cis-p-coumaroyl tormentic acid]	104.6 ± 6.7	7.0 ± 8.8	6.6 ± 11.1	12.6 ± 8.4	42.4 ± 14.9	80.1 ± 9.5	12.6 (≈ 19.8 µM)	19.5	0.0 ± 2.1	0.0 ± 5.3	0.0 ± 3.8	35.6 ± 1.1	47.1 ± 6.0	1.1	200 (≈ 315 µM)	active	103.5 ± 2.2	–
–	–	–	OC[C@H]1O[C@@H](Oc2ccc(O)cc2)[C@H](O)[C@@H](O)[C@@H]1O [Arbutin, reference compound]	–	–	–	–	–	–	–	–	–	–	–	–	–	–	–	–	–	CC50 at 72 h (in vitro): 1820 µM; IC50 (B16 melanoma cells [3]; [7]): 976 µM
–	–	–	C[C@H]1[C@H](C)CC[C@]2(CO)CC[C@]3(C)C(=CC[C@@H]4[C@@]5(C)CC[C@H](O)C(C)(C)[C@@H]5CC[C@]43C)[C@H]12 [Compound 3, Uvaol]	–	–	–	4.0 ± 7.6	10.8 ± 6.8	6.5± 7.4	–	–	–	–	–	–	–	–	–	–	–	viability at 25 μg/ml ([4]; 25 μg/ml, RBL-2H3 cells, read-out: Cell viability): 110 ± 10.2%; CC50 at 72 h (in vitro; B16 melanoma cells): > 45.2 µM; inhibition at 5 µg/mL (B16 melanoma cells [3]; Mus musculus, 5 μg/ml, B16 cells, read-out: Inhibition rate (100% − melanin synthesis)): 0%; inhibition at 10 µg/mL (B16 melanoma cells [3]; Mus musculus, 10 μg/ml, B16 cells, read-out: Inhibition rate (100% − melanin synthesis)): 14.2 ± 2.6%; inhibition at 20 µg/mL (B16 melanoma cells [3]; Mus musculus, 20 μg/ml, B16 cells, read-out: Inhibition rate (100% − melanin synthesis)): 14.6 ± 4.6%; IC50 (B16 melanoma cells [3]; [7]): > 45.2 µM; IC50 (B16 melanoma cells [3]; [8]): > 20 µg/mL; inhibition at 25 µg/mL (RBL-2H3 cells [5]; 25 μg/mL, read-out: Inhibition Rate (β-hexosaminidase release)): 29.9 ± 3.3%; inhibition at 50 µg/mL (Propionibacterium acnes; Cutibacterium acnes, concentration 50 μg/mL, read-out: Inhibition Rate (P. acnes growth)): < 0%
9.0 (≈ 18.4 µM)	18.5	100 (≈ 205 µM)	C[C@@H]1CC[C@]2(C(=O)O)CC[C@]3(C)C(=CC[C@@H]4[C@@]5(C)C[C@@H](O)[C@H](O)C(C)(C)[C@@H]5CC[C@]43C)[C@@H]2[C@]1(C)O [Compound 11, tormentic acid]	62.6 ± 1.1	12.0 ± 12.8	13.7 ± 10.7	8.7 ± 12.1	52.4 ± 8.6	85.8 ± 1.6	11.4 (≈ 23.3 µM)	23.3	0.0± 6.1	11.3 ± 3.4	34.8 ± 4.5	51.3 ± 0.9	73.4 ± 8.0	1.3	200 (≈ 409 µM)	active	102.8 ± 2.1	–
–	–	–	CC1CCC2(C(=O)O)CCC3(C)C(=CCC4C5(C)C(CO)=CC(C)(C)C5CCC43C)C2C1(C)O (centres unmarked) [Compound 16, hyptadienic acid]	–	3.7 ± 3.8	14.7 ± 4.2	28.9 ± 3.2	60.3 ± 6.5	–	–	–	–	–	–	–	–	–	–	active	–	viability at 25 μg/ml [4]: 99.9 ± 2.3%; CC50 at 72 h (in vitro): 7.8 µg/mL and 16.5 µM; S.I (selectivity index, CC50 value/IC50 value) (B16 melanoma cells [3]; B16 melanoma cells): 0.8; IC50 (B16 melanoma cells [3]; Mus musculus, B16, read-out: IC50 (melanin synthesis)): 21.6 µM; inhibition at 1 µg/mL (B16 melanoma cells [3]; [9]): 0.1 ± 4.5%; inhibition at 2.5 µg/mL (B16 melanoma cells [3]; [9]): 1.9 ± 3.4%; inhibition at 5 µg/mL (B16 melanoma cells [3]; [9]): 13.4 ± 5.5%; inhibition at 10 µg/mL (B16 melanoma cells [3]; [9]): 51.8 ± 5%; IC50 (B16 melanoma cells [3]; [8]): 10.1 µg/mL; MBC (Propionibacterium acnes; Cutibacterium acnes): 200 µg/mL (≈ 425 µM); MIC (Propionibacterium acnes; Cutibacterium acnes): 100 µg/mL (≈ 212 µM); inhibition at 100 µg/mL (Propionibacterium acnes; Cutibacterium acnes, read-out: Inhibition Rate (P. acnes growth)): 104 ± 3.1%
–	–	–	O=c1c(O)c(-c2ccc(O)c(O)c2)oc2cc(O)cc(O)c12 [Quercetin, reference compound]	–	–	–	–	–	–	–	–	–	–	–	–	–	–	–	–	–	inhibition at 82 µM (RBL-2H3 cells [5]; 82 μM, positive control, read-out: inhibition rate of β-hexosaminidase release): 72.5%
